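Method: 48-hour compound exposure of cells in 96-well plates, five concentrations, linear interpolation of endpoints. The concentration for 50% growth inhibition is given as GI50.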 Activity calls are given as the source filed them. Cut-off read from the data, not from the text of the source: active = GI50 up to about 1.1 µM and inactive = higher.
Legend:
Experiment in all cases: inhibition of tumour cell growth, NCI panel, 48 h
NCI-H460 = test system: NCI-H460
SNB-75 = test system: SNB-75
SF-295 = test system: SF-295
OVCAR-4 = test system: OVCAR-4
UACC-62 = test system: UACC-62
IGROV-1 = test system: IGROV-1
M19-MEL = test system: M19-MEL
HCC 2998 = test system: HCC 2998
K562 = test system: K562
M14 = test system: M14
SNB-78 = test system: SNB-78
HT-29 = test system: HT-29
LXFL 529 = test system: LXFL 529
KM12 = test system: KM12
DMS-114 = test system: DMS-114
HL-60 = test system: HL-60
KM-20L2 = test system: KM-20L2
UO-31 = test system: UO-31
HCT-116 = test system: HCT-116
SK-MEL-2 = test system: SK-MEL-2
HOP-62 = test system: HOP-62
RPMI-8226 = test system: RPMI-8226
OVCAR-5 = test system: OVCAR-5
COLO 205 = test system: COLO 205
NCI-H23 = test system: NCI-H23
SNB-19 = test system: SNB-19
MOLT-4 = test system: MOLT-4
OVCAR-3 = test system: OVCAR-3
SK-MEL-28 = test system: SK-MEL-28
ACHN = test system: ACHN
SR = test system: SR
HOP-92 = test system: HOP-92
U-251 = test system: U-251
SF-539 = test system: SF-539
UACC-257 = test system: UACC-257
NCI-H522 = test system: NCI-H522
SK-OV-3 = test system: SK-OV-3
SF-268 = test system: SF-268
SW-620 = test system: SW-620
A498 = test system: A498
SK-MEL-5 = test system: SK-MEL-5
DMS-273 = test system: DMS-273
786-0 = test system: 786-0
Malme-3M = test system: Malme-3M
SN12C = test system: SN12C
TK-10 = test system: TK-10
EKVX = test system: EKVX
RXF 393 = test system: RXF 393
CCRF-CEM = test system: CCRF-CEM
CAKI-1 = test system: CAKI-1
LOX IMVI = test system: LOX IMVI
OVCAR-8 = test system: OVCAR-8
HCT-15 = test system: HCT-15
A549 = test system: A549
NCI-H226 = test system: NCI-H226

Compound: Cc1cnc2cc(Cl)ccc2c1NCCN(CC(C)C)CC(C)C
- GI50 (NCI-H460): > 100 µM (inactive)
- GI50 (SNB-75): > 100 µM (inactive)
- GI50 (SF-295): 32.7 µM (inactive)
- GI50 (OVCAR-4): > 100 µM (inactive)
- GI50 (UACC-62): > 100 µM (inactive)
- GI50 (IGROV-1): > 100 µM (inactive)
- GI50 (M19-MEL): > 100 µM (inactive)
- GI50 (HCC 2998): > 100 µM (inactive)
- GI50 (K562): 9.53 µM (inactive)
- GI50 (M14): > 100 µM (inactive)
- GI50 (SNB-78): 41.1 µM (inactive)
- GI50 (HT-29): 8.3 µM (inactive)
- GI50 (LXFL 529): 59.8 µM (inactive)
- GI50 (KM12): > 100 µM (inactive)
- GI50 (DMS-114): 8.18 µM (inactive)
- GI50 (HL-60): 9.75 µM (inactive)
- GI50 (KM-20L2): 17.5 µM (inactive)
- GI50 (UO-31): 9.23 µM (inactive)
- GI50 (HCT-116): 78.7 µM (inactive)
- GI50 (SK-MEL-2): > 100 µM (inactive)
- GI50 (HOP-62): 67.6 µM (inactive)
- GI50 (RPMI-8226): 13.6 µM (inactive)
- GI50 (OVCAR-5): > 100 µM (inactive)
- GI50 (COLO 205): > 100 µM (inactive)
- GI50 (NCI-H23): 95.3 µM (inactive)
- GI50 (SNB-19): > 10 µM (inactive)
- GI50 (MOLT-4): > 100 µM (inactive)
- GI50 (OVCAR-3): 13.3 µM (inactive)
- GI50 (SK-MEL-28): > 100 µM (inactive)
- GI50 (ACHN): > 100 µM (inactive)
- GI50 (SR): > 100 µM (inactive)
- GI50 (HOP-92): 11.1 µM (inactive)
- GI50 (U-251): > 100 µM (inactive)
- GI50 (SF-539): > 100 µM (inactive)
- GI50 (UACC-257): > 100 µM (inactive)
- GI50 (NCI-H522): 13.1 µM (inactive)
- GI50 (SK-OV-3): > 100 µM (inactive)
- GI50 (SF-268): > 100 µM (inactive)

Compound: O=C(OC1CCC2OOC1O2)c1ccc([N+](=O)[O-])cc1 (stereo unspecified)
- GI50 (NCI-H460): > 100 µM (inactive)
- GI50 (SNB-75): > 100 µM (inactive)
- GI50 (SF-295): > 100 µM (inactive)
- GI50 (OVCAR-4): > 100 µM (inactive)
- GI50 (UACC-62): > 100 µM (inactive)
- GI50 (IGROV-1): > 100 µM (inactive)
- GI50 (M19-MEL): > 100 µM (inactive)
- GI50 (HCC 2998): > 100 µM (inactive)
- GI50 (K562): > 100 µM (inactive)
- GI50 (M14): > 100 µM (inactive)
- GI50 (SW-620): > 100 µM (inactive)
- GI50 (SNB-78): > 100 µM (inactive)
- GI50 (HT-29): > 100 µM (inactive)
- GI50 (A498): > 100 µM (inactive)
- GI50 (SK-MEL-5): > 100 µM (inactive)
- GI50 (DMS-273): > 100 µM (inactive)
- GI50 (KM12): > 100 µM (inactive)
- GI50 (DMS-114): > 100 µM (inactive)
- GI50 (786-0): > 100 µM (inactive)
- GI50 (HL-60): > 100 µM (inactive)
- GI50 (Malme-3M): > 100 µM (inactive)
- GI50 (KM-20L2): > 100 µM (inactive)
- GI50 (UO-31): > 100 µM (inactive)
- GI50 (HCT-116): > 100 µM (inactive)
- GI50 (SK-MEL-2): > 100 µM (inactive)
- GI50 (SN12C): > 100 µM (inactive)
- GI50 (HOP-62): > 100 µM (inactive)
- GI50 (TK-10): > 100 µM (inactive)
- GI50 (RPMI-8226): > 100 µM (inactive)
- GI50 (OVCAR-5): > 100 µM (inactive)
- GI50 (COLO 205): > 100 µM (inactive)
- GI50 (NCI-H23): > 100 µM (inactive)
- GI50 (EKVX): > 100 µM (inactive)
- GI50 (SNB-19): > 100 µM (inactive)
- GI50 (RXF 393): > 100 µM (inactive)
- GI50 (MOLT-4): > 100 µM (inactive)
- GI50 (OVCAR-3): > 100 µM (inactive)
- GI50 (SK-MEL-28): > 100 µM (inactive)
- GI50 (ACHN): > 100 µM (inactive)
- GI50 (SR): > 100 µM (inactive)
- GI50 (CCRF-CEM): > 100 µM (inactive)
- GI50 (CAKI-1): > 100 µM (inactive)
- GI50 (LOX IMVI): > 100 µM (inactive)
- GI50 (U-251): > 100 µM (inactive)
- GI50 (OVCAR-8): > 100 µM (inactive)
- GI50 (SF-539): > 100 µM (inactive)
- GI50 (UACC-257): > 100 µM (inactive)
- GI50 (NCI-H522): > 100 µM (inactive)
- GI50 (HCT-15): > 100 µM
- GI50 (A549): > 100 µM (inactive)
- GI50 (SK-OV-3): > 100 µM (inactive)
- GI50 (SF-268): > 100 µM (inactive)
- GI50 (NCI-H226): > 100 µM (inactive)

— ChEMBL document CHEMBL1201862, “PubChem BioAssay data set” (2004)
